Legend:
glucocorticoid receptors [1] = target: T1, glucocorticoid receptors (Homo sapiens, UniProt P04150); assay: Glucocorticoid receptor binding displacement assay with 3H-dexamethasone; parameters: This GR was a full-length steroid hormone receptor; host or cells: recombinant baculovirus-infected insect cells; settings: Ki from IC50 by Cheng-Prusoff; 2.5 nM 3H-dexamethasone; read-out: GR Binding
T1 sequence (P04150 1-777): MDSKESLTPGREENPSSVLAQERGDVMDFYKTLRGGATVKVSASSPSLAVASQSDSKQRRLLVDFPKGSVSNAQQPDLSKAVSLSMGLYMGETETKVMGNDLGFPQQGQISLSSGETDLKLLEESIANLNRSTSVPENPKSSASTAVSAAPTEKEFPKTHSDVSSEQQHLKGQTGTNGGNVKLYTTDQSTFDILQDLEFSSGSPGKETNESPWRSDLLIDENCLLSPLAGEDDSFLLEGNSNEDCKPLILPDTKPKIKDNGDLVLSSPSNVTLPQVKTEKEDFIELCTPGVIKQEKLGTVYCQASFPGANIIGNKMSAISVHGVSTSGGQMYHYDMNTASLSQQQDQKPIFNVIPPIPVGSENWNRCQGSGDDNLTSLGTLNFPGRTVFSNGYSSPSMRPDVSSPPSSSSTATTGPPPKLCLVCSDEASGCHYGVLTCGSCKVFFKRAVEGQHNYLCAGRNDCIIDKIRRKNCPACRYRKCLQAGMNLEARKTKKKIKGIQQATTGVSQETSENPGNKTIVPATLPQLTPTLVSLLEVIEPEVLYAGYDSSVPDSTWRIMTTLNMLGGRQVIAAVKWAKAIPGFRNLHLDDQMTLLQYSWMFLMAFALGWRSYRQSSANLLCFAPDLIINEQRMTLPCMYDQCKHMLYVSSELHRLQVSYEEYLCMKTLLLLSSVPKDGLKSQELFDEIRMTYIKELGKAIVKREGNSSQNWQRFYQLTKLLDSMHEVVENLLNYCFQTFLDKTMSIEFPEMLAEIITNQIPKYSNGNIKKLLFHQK
Experimental: The source of the receptor was recombinant baculovirus-infected insect cells. This GR was a full-length steroid hormone receptor likely to be associated with heat-shock and other endogenous proteins.
For the Primary Screen, test compounds were tested at 1 μM in duplicate. These compounds were diluted from 10 mM stock in 100% DMSO. After dilution to 100 μM, 5 μl were added to 245 μl assay buffer to obtained 2 μM compound and 2% DMSO.
For the IC50 determinations, test compounds were tested at 6 concentrations in duplicate (concentration range depends on % inhibition binding that was obtained in the Primary Screen). Test compounds were diluted from 10 mM stock in 100% DMSO. The tested solutions were prepared at 2× final assay concentration in 2% DMSO/assay buffer.
All reagents and the assay plate were kept on ice during the addition of reagents. […] After the additions, the incubation mixture was mixed and incubated for 2.5 hrs at 4° C.
After 2.5 hrs incubation, unbound counts were removed with dextran coated charcoal (DCC) as follows: 25 μl of DCC solution (10% DCC in assay buffer) was added to all wells and mixed (total volume 225 μl). The plate was centrifuged at 4000 rpm for 10 minutes at 4° C. 75 μl of the supernatants (i.e.⅓ of total volume) was carefully pipetted into an optiplate. 200 μl of scintillation cocktail were added (Microscint-40, Packard Bioscience. B.V.). The plate was vigorously shaken for approx. 10 minutes and counted on Topcount.
The IC50 values were converted to Ki (the inhibition constant) using the Cheng-Prusoff equation.
Reagents: Assay buffer: 10 mM potassium phosphate buffer pH 7.6 containing 5 mM DTT, 10 mM sodium molybdate, 100 μM EDTA and 0.1% BSA.

glucocorticoid receptors [2] = target: T1, glucocorticoid receptors; assay: GR functional assay using SW1353/MMTV-5 cells (dexamethasone-induced luciferase); assay type: cell-based; parameters: contains endogenous glucocorticoid receptors; endogenous in cells; host or cells: SW1353/MMTV-5 (human chondrosarcoma, stably carrying the pMAMneo-Luc reporter); settings: read-out: GR Functional
Experimental: SW1353/MMTV-5 is an adherent human chondrosarcoma cell line that contains endogenous glucocorticoid receptors. It was transfected with a plasmid (pMAMneo-Luc) encoding firefly luciferase located behind a glucocorticoid-responsive element (GRE) derived from a viral promoter (long terminal repeat of mouse mammary tumor virus). A stable cell line SW1353/MMTV-5 was selected with geneticin, which was required to maintain this plasmid.
SW1353/MMTV-5 cells were distributed in 96-well plates and incubated in medium (without geneticin) for 24 hrs (in the absence of CO2).

[3] = SW1353/MMTV-5 cells, antagonism of 50 nM dexamethasone, luciferase

Row | SMILES | Ki (glucocorticoid receptors [1]) | Ki (glucocorticoid receptors [2]) | Ki (glucocorticoid receptors [2]; [3])
1 | COC(=O)[C@]12Cc3cnn(-c4ccc(F)cc4)c3C=C1CCN(S(=O)(=O)c1ccc(C(C)(C)C)cc1)C2 | < 10 nM | 10 to 100 nM | 
2 | CCCCn1ncc2c1C=C1CCN(S(=O)(=O)c3ccc(C(C)(C)C)cc3)C[C@@]1(C(=O)OC)C2 | 10 to 100 nM | > 100 nM | 
3 | COC(=O)[C@]12Cc3cnn(C(C)C)c3C=C1CCN(S(=O)(=O)c1ccc(C(C)(C)C)cc1)C2 | 10 to 100 nM | > 100 nM | 
4 | CC(C)(C)c1ccc(S(=O)(=O)N2CCC3=Cc4c(cnn4-c4ccc(F)cc4)C[C@]3(CO)C2)cc1 | < 10 nM | 10 to 100 nM | 
5 | O=S(=O)(c1ccc(F)cc1)N1CCC2=Cc3c(cnn3-c3ccc(F)cc3)C[C@]2(CO)C1 | < 10 nM | > 100 nM | 
6 | Cc1ccc(S(=O)(=O)N2CCC3=Cc4c(cnn4-c4ccc(F)cc4)C[C@]3(CO)C2)cc1 | < 10 nM | 10 to 100 nM | 
7 | COC[C@]12Cc3cnn(-c4ccc(F)cc4)c3C=C1CCN(S(=O)(=O)c1ccc(C(C)(C)C)cc1)C2 | < 10 nM | < 10 nM | 
8 | COCCOC[C@]12Cc3cnn(-c4ccc(F)cc4)c3C=C1CCN(S(=O)(=O)c1ccc(C(C)(C)C)cc1)C2 | < 10 nM | < 10 nM | 
9 | O=S(=O)(c1ccccc1)N1CCC2=Cc3c(cnn3-c3ccc(F)cc3)C[C@]2(COCCO)C1 | < 10 nM | 10 to 100 nM | 
10 | CCOC[C@]12Cc3cnn(-c4ccc(F)cc4)c3C=C1CCN(S(=O)(=O)c1ccc(C(C)(C)C)cc1)C2 | < 10 nM | < 10 nM | 
11 | CC(C)(C)c1ccc(S(=O)(=O)N2CCC3=Cc4[nH]ncc4CC3(Cc3ccccc3)C2)cc1 (centres unmarked) [drawing 229] | < 10 nM |  | 10 to 100 nM
12 | O=S(=O)(c1ccc(N2CCOCC2)cc1)N1CCC2=Cc3[nH]ncc3CC2(Cc2ccccc2)C1 (centres unmarked) [drawing 230] | < 10 nM |  | > 100 nM
13 | CN1CCOc2cc(S(=O)(=O)N3CCC4=Cc5[nH]ncc5CC4(Cc4ccccc4)C3)ccc21 (centres unmarked) [drawing 231] | < 10 nM |  | > 100 nM
14 | Cn1cc2c(n1)C=C1CCN(S(=O)(=O)c3ccc(C(C)(C)C)cc3)CC1(Cc1ccccc1)C2 (centres unmarked) [drawing 232] | < 10 nM | > 100 nM | 
15 | CC(C)(C)c1ccc(S(=O)(=O)N2CCC3=Cc4c(cnn4-c4ccc(F)cc4)CC3(Cc3ccccc3)C2)cc1 (centres unmarked) [drawing 233] | < 10 nM | 10 to 100 nM | 
16 | CC(C)(C)c1ccc(S(=O)(=O)N2CCC3=Cc4c(cnn4Cc4ccccc4)CC3(Cc3ccccc3)C2)cc1 (centres unmarked) [drawing 237] | < 10 nM | > 100 nM | 

Row | SMILES | Ki (glucocorticoid receptors [1]) | Ki (glucocorticoid receptors [2]) | Ki (glucocorticoid receptors [2]; [3])
17 | CC(C)(C)c1ccc(S(=O)(=O)N2CCC3=Cc4c(cnn4-c4ccc(C#N)cc4)CC3(Cc3ccccc3)C2)cc1 (centres unmarked) [drawing 239] | < 10 nM | 10 to 100 nM | 
18 | CC(C)(C)c1ccc(S(=O)(=O)N2CCC3=Cc4c(cnn4-c4ccc(S(N)(=O)=O)cc4)CC3(Cc3ccccc3)C2)cc1 (centres unmarked) [drawing 240] | 10 to 100 nM | > 100 nM | 
19 | CC(C)(C)c1ccc(S(=O)(=O)N2CCC3=Cc4c(cnn4Cc4cccc(O)c4)CC3(Cc3ccccc3)C2)cc1 (centres unmarked) [drawing 241] | > 100 nM | > 100 nM | 
20 | Fc1ccc(-n2ncc3c2C=C2CCN(Cc4ccccc4)CC2(Cc2ccccc2)C3)cc1 (centres unmarked) [drawing 242] | 10 to 100 nM | > 100 nM | 
21 | COc1ccc(CC23Cc4cnn(-c5ccc(F)cc5)c4C=C2CCN(Cc2ccccc2)C3)cc1 (centres unmarked) [drawing 244] | < 10 nM | > 100 nM | 
22 | CC(C)(C)c1ccc(S(=O)(=O)N2CCC3=Cc4[nH]ncc4CC3(Cc3ccccc3)C2)cc1 (centres unmarked) [drawing 245] | < 10 nM | 10 to 100 nM | 
23 | O=S(=O)(c1ccc(N2CCOCC2)cc1)N1CCC2=Cc3[nH]ncc3CC2(Cc2ccccc2)C1 (centres unmarked) [drawing 246] | < 10 nM | > 100 nM | 
24 | CN1CCOc2cc(S(=O)(=O)N3CCC4=Cc5[nH]ncc5CC4(Cc4ccccc4)C3)ccc21 (centres unmarked) [drawing 247] | < 10 nM | > 100 nM | 
25 | Cn1cc2c(n1)C=C1CCN(S(=O)(=O)c3ccc(C(C)(C)C)cc3)CC1(Cc1ccccc1)C2 (centres unmarked) [drawing 248] | < 10 nM |  | > 100 nM
26 | CC(C)(C)c1ccc(S(=O)(=O)N2CCC3=Cc4c(cnn4-c4ccc(F)cc4)CC3(Cc3ccccc3)C2)cc1 (centres unmarked) [drawing 249] | < 10 nM |  | 10 to 100 nM
27 | CC(C)(C)c1ccc(S(=O)(=O)N2CCC3=Cc4c(cnn4Cc4ccccc4)CC3(Cc3ccccc3)C2)cc1 (centres unmarked) [drawing 253] | < 10 nM |  | > 100 nM
28 | CC(C)(C)c1ccc(S(=O)(=O)N2CCC3=Cc4c(cnn4-c4ccc(C#N)cc4)CC3(Cc3ccccc3)C2)cc1 (centres unmarked) [drawing 255] | < 10 nM |  | 10 to 100 nM
29 | CC(C)(C)c1ccc(S(=O)(=O)N2CCC3=Cc4c(cnn4-c4ccc(S(N)(=O)=O)cc4)CC3(Cc3ccccc3)C2)cc1 (centres unmarked) [drawing 256] | 10 to 100 nM |  | > 100 nM
30 | Fc1ccc(-n2ncc3c2C=C2CCN(Cc4ccccc4)CC2(Cc2ccccc2)C3)cc1 (centres unmarked) [drawing 258] | 10 to 100 nM |  | > 100 nM
31 | COc1ccc(CC23Cc4cnn(-c5ccc(F)cc5)c4C=C2CCN(Cc2ccccc2)C3)cc1 (centres unmarked) [drawing 260] | < 10 nM |  | > 100 nM
